Source: EP1709956A1, “Hair treatment composition comprising betains” (Henkel Kommanditgesellschaft auf Aktien, priority 2001, dated 2002)

Tested on: humane Haarfollikel
Experiment: in vitro model of isolated human scalp hair follicles (Philpott): hair shaft elongation in organ culture
Format: cell-based
Settings: 9 days in culture
Description: Auf diese Publikation wird ausdrücklich Bezug genommen. Gemäß dieser Veröffentlichung wurde wie folgt verfahren: a. Isolation humaner Kopfhauthaarfollikel Es wird okzipitale, humane Vollhaut isoliert. b. Aufreinigung der isolierten humanen Kopfhautfollikel Die herausgezupften Haarfollikel werden in ein frisches Isolationsmedium überführt, darin gesammelt und anschließend mehrfach unter sterilen Bedingungen mit frischem Medium gewaschen. Je drei Haarfollikel werden randomisiert in ein Well einer 24-Well Platte mit 500µl kompletten Mediums (verwendet wird Williams E Medium, supplementiert mit 2 mM L-Glutamin, 10 µg/ml Hydrokortison, 10 µg/ml Insulin, 10 µg/ml Penizillin und 10 µg/ml Streptomycin). Vor der Zugabe der zu testenden Substanzen wurden die Haarfollikel für 30 Minuten im Inkubator präinkubiert. c. Testung der Substanzen Es werden Carnitin, Carnitintartrat sowie Minoxidil als Vergleichssubstanz mit bekannter Wirkung geprüft. Die Prüfkonzentration für Carnitin und Carnitiontartrat beträgt jeweils 50 µmol/1. Die Haarfollikel werden für 9 Tage in Kultur gehalten. Das Medium inklusive der Testsubstanzen wird täglich gewechselt. Die Länge der jeweiligen Haarschäfte wird am 9. Tag mit Hilfe eines Meßokulares am Dissektionsmikroskop gemessen und dokumentiert. Die Prüfung von Minoxidil ist eine Positivkontrolle, weil Minoxidil in der Literatur bereits als wachstumsstimulierend für humane Haarfollikel beschrieben wird. […] Hierzu sind folgende Änderungen gegenüber der Prüfung des Carnitines und des Carnitintartrates notwendig: Testkonzentration des Minoxidil 10^-5 mol/l in 1 % Ethanol, Ersatz des Streptomycines durch 10µg/ml Ciprofloxacin. Zur statistischen Auswertung der Ergebnisse wird die Länge der Haarschäfte in % der Gesamtdurchschnittslänge aller Haarfollikel am Tage 0 berechnet. Alle Haarfollikel einer Gruppe werden gepoolt und der Mittelwert sowie die Standardabweichung statistisch nach üblichen Methoden berechnet. Signifikante Unterschiede werden mit dem Student T-Test berechnet. d.

[1] = 50 µmol/l, medium changed daily, shaft length measured on day 9, in % of mean length of all follicles on day 0

Structure (SMILES) | Längenwachstum des Haarschaftes in % [1] | Längenwachstum des Haarschaftes in % (positive control, 10^-5 mol/l in 1 % Ethanol, streptomycin replaced by 10 µg/ml Ciprofloxacin, measured on day 9)
C[N+](C)(C)CC(O)CC(=O)[O-] (stereo not drawn) [Carnitin] | 67% | 
Nc1cc(N2CCCCC2)nc(N)[n+]1[O-] [Minoxidil, reference compound] |  | 34%
C[N+](C)(C)CC(O)CC(=O)[O-] (stereo not drawn) [Carnitintartrat] | 87% | 
